Measured values taken from patent publication US8637521B2, “Substituted piperazin-2,5-diones and their use as multifunctional bioactive compounds” (priority 2006, dated 2014).
Several values for one entry are separate records, joined by “and”; a condition that tells them apart may be missing. Identical values can stand only once.

How the values were obtained:
[1] = tested on: CFU-S population in the bone marrow; assay: Spleen colony formation (CFU-S) by bone marrow cells of peptide-treated intact donor mice; assay type: in vivo, (CBA×C57 B1) F1 mice; details: for Colony count CFU-8 - S per 10^5 cells M ± M: control 11.2 ± 0.4; for Colony count CFU-8 - S per 10^5 cells M ± m: control 9.9 ± 0.7
Protocol: The effect of tested substances on intact bone marrow was studied in vivo. […] Two days after administration of preparation, the mice were killed. Bone marrow suspension was prepared and injected intravenously to lethally irradiated mice. The colony forming activity was evaluated at day 8. Test animals were (CBA×C57 B1) F1 mice (30 mice per trial, average from 3 tests).

[2] = tested on: Anti-OVA antibody titers; assay: Adjuvant activity, anti-OVA antibody titers by ELISA (Example 8); assay type: in vivo, Balb/c mice; details: for Anti-protein antibody titer (pooled sera) / Stimulation index / Anti-protein antibody titer (for individual sera): Table 7
Protocol: Adjuvant activity was tested on 11 groups of Balb/c mice (obtained from Stolbovaya Breeding Station). Each group consisted of 7 animals. Three immunizations were performed as follows:
• Group 1—ovalbumin 25 micrograms per animal (Mouse Nos. 1 to 7) • Group 2—ovalbumin 25 micrograms per animal+CFA (Complete Freund's adjuvant) (Mouse Nos. 8 to 14) • Group 3—ovalbumin 25 micrograms per animal+adjuvant of compound 33a 100 micrograms per animal (Mouse Nos. 15 to 21) • Group 4—ovalbumin 25 micrograms per animal+adjuvant of compound 33a 10 micrograms per animal (Mouse Nos. […]) • Group 5—ovalbumin 25 micrograms per animal+adjuvant of compound 33a 1 microgram per animal (Mouse Nos. […]) • Group 6—ovalbumin 25 micrograms per animal+adjuvant of compound 33b 100 micrograms per animal (No. 36 to 42) • Group 7—ovalbumin 25 micrograms per animal+adjuvant of compound 33b 10 micrograms per animal (Mouse Nos. 43 to 49) • Group 8—ovalbumin 25 micrograms per animal+adjuvant of compound 33b 1 microgram per animal (Mouse Nos. 50 to 56) • Group 9—ovalbumin 25 micrograms per animal+adjuvant of compound 17 100 micrograms per animal (Mouse Nos. 57 to 63) • Group 10—ovalbumin 25 micrograms per animal+adjuvant of compound 1710 micrograms per animal (Mouse Nos. 64 to 70) • Group 11—ovalbumin 25 micrograms per animal+adjuvant of compound 171 microgram per animal (Mouse Nos. 71 to 77) Second Immunization:
The same set 14 days after first immunization by injection of 12.5 micrograms of ovalbumin/mouse to mouse nos. 1 to 77.
The same set 28 days after first immunization by injection of 12.5 micrograms of ovalbumin/mouse to mouse nos. 1 to 77.
On day 35 after first immunization, blood samples from each mouse were collected.
OVA (10 micrograms/ml) solution in 0.05 M sodium carbonate buffer (pH 9.5) was added to plate wells, 0.1 ml per well and incubated at 4° C. for 16 hours. The OVA solution was then removed and the plate was washed 4 times with PBS containing 0.05% Tween-20. Such washing was performed after each incubation stage. Serial twofold dilutions of sera (starting from 1:100 or 1:1000) were added to the wells, 0.1 ml per well and incubated at 37° C. for 1 hour followed by incubation (1 hour, 37° C.) with HRP-conjugated goat anti-mouse IgG antibodies (0.1 ml, 1 mg/ml in PBS) and then with a 0.1 mL substrate solution −0.05% H2O2 and 0.05% o-phenylene diamine in 0.05M sodium citrate buffer with a pH of 4.5. The reaction was stopped by adding 100 μl of 12.5% H2SO4. Absorbance was measured at a wavelength of 492 nm using a Multiscan Plus MKII (Flow Laboratories, Great Britain). Significant anti-protein antibody titer (for individual sera) was assessed as the serum dilution produced an absorbance value of more than 0.1 ODU and the minimum exceeds three times the control level. The antibody titer was presented and −log of dilution (FIGS. 2 and 3). The stimulation index for pooled sera was calculated by dividing the test pooled sera dilution producing OD=1 by the dilution of pooled sera from mice immunized without the adjuvant, producing OD=1. The results of the adjuvant activities of cyclo-L-Ala-L-Glu-(L-Trp-OH) (Compound 17), cyclo-L-Lys(N-acetyl-Glycosamine-N-acetyl-muramil)-L-Glu-(L-Trp-OH) (Compound 33a) and cyclo-D-Lys(N-acetyl-Glycosamine-N-acetyl-muramil)-D-Glu-(L-Trp-OH) (Compound 33b) are shown in Table 7 and the adjuvant activities of cyclo [L-Lys(Palmitoyil)-L-Glu(D-Trp-OH)] (Compound 26a) and cyclo [D-Lys(Palmitoyil)-D-Glu(D-Trp-OH)] (Compound 26b) are shown in Table 8 as well as in FIG. 4 which includes the results of the adjuvant activities of cyclo-L-Lys-L-Glu-(L-Trp-OH) (compound 19). It is noted that the peptides of compounds 26a and 26b are soluble in 0.1% NH4OH at a concentration of 1 mg per 1 to 2 ml.

[3] = Table 3, 0.2 microgram per mouse per os
[4] = 100 μg per animal, no adjuvant 4.5
[5] = 100 μg per animal, no adjuvant = 1
[6] = OVA + adjuvant 1 μg per animal, −log of dilution
[7] = OVA + adjuvant 10 μg per animal, −log of dilution
[8] = OVA + adjuvant 100 μg per animal, titer as −log of dilution, one value per mouse

SMILES: COC(=O)[C@@H](Cc1c[nH]c2ccccc12)NC(=O)CC[C@H]1NC(=O)[C@@H](C)NC1=O [Compound 1, Cyclo-D-Ala-D-Glu-(D-Trp-OMe)]
- % suppression ([1]; Table 2, donor treated per os): 40%
- Colony count CFU-8 - S per 10^5 cells M ± M ([1]; Table 2, donor treated per os): 7.4 ± 0.4 per 10^5 cells
- % suppression ([1]; Table 2, donor treated s/c): 47%
- Colony count CFU-8 - S per 10^5 cells M ± M ([1]; Table 2, donor treated s/c): 6.8 ± 0.4 per 10^5 cells
- % suppression [1, 3]: 42%
- Colony count CFU-8 - S per 10^5 cells M ± m [1, 3]: 6.5 ± 0.5 per 10^5 cells

SMILES: CC(=O)N[C@H]1[C@H](O[C@H]2[C@H](O[C@H](C)C(=O)NCCCC[C@H]3NC(=O)[C@@H](CCC(=O)N[C@@H](Cc4c[nH]c5ccccc45)C(=O)O)NC3=O)[C@@H](NC(C)=O)C(O)O[C@@H]2CO)O[C@H](CO)[C@@H](O)[C@@H]1O (stereo partly drawn) [Compound 33b, cyclo-D-Lys(N-acetyl-Glycosamine-N-acetyl-muramil)-D-Glu-(L-Trp-OH)]
- adjuvant activity (FIG. 4), doses at which active [2]: not an active compound
- Anti-protein antibody titer (pooled sera) ([2]; 1 μg per animal): 5.1
- Stimulation index ([2]; 1 μg per animal): 3.5
- Anti-protein antibody titer (pooled sera) ([2]; 10 μg per animal): 5.4
- Stimulation index ([2]; 10 μg per animal): 4.1
- Anti-protein antibody titer (pooled sera) [2, 4]: 4.8
- Stimulation index [2, 5]: 2.9
- Anti-protein antibody titer (for individual sera) [2, 6]: 5.2 and 4.8 (4×) and 4.5 and 5.1
- Anti-protein antibody titer (for individual sera) [2, 7]: 4.8 and 4.5 and 5.2 and 5.1 and 5.4 (2×) and 4.3
- Anti-protein antibody titer (for individual sera) [2, 8]: 4.8 and 5.4 (3×) and 4.2 and 5.1 (2×)

SMILES: COC(=O)[C@@H](Cc1c[nH]c2ccccc12)NC(=O)C[C@H]1NC(=O)[C@@H](C)NC1=O [Compound 12, Cyclo-D-Ala-D-Asp-(D-Trp-OMe)]
- % suppression [1, 3]: 28%
- Colony count CFU-8 - S per 10^5 cells M ± m [1, 3]: 8.4 ± 0.6 per 10^5 cells

SMILES: O=C(CCC1NC(=O)C(Cc2ccc(O)cc2)NC1=O)NC(Cc1c[nH]c2ccccc12)C(=O)[O-].[Na+] (centres unmarked) [cyclo-DTyr-DGlu-(DTrp-ONa)]
- % suppression [1, 3]: 44%
- Colony count CFU-8 - S per 10^5 cells M ± m [1, 3]: 6.3 ± 0.9 per 10^5 cells

SMILES: O=C(CC[C@H]1NC(=O)[C@@H](Cc2ccccc2)NC1=O)N[C@H](Cc1c[nH]c2ccccc12)C(=O)[O-].[Na+] [cyclo-DPhe-DGlu-(DTrp-ONa)]
- % suppression ([1]; Table 2, donor treated per os): 28%
- Colony count CFU-8 - S per 10^5 cells M ± M ([1]; Table 2, donor treated per os): 8.1 ± 0.4 per 10^5 cells
- % suppression [1, 3]: 28%
- Colony count CFU-8 - S per 10^5 cells M ± m [1, 3]: 8.1 ± 0.4 per 10^5 cells

SMILES: NCCCCC1NC(=O)C(CCC(=O)NC(Cc2c[nH]c3ccccc23)C(=O)O)NC1=O [Compound 19, cyclo-L-Lys-L-Glu-(L-Trp-OH)]
- adjuvant activity (FIG. 4), doses at which active [2]: active at 100 μg/kg

SMILES: CC(=O)N[C@H]1[C@H](O[C@H]2[C@H](O[C@H](C)C(=O)NCCCC[C@@H]3NC(=O)[C@H](CCC(=O)N[C@@H](Cc4c[nH]c5ccccc45)C(=O)O)NC3=O)[C@@H](NC(C)=O)C(O)O[C@@H]2CO)O[C@H](CO)[C@@H](O)[C@@H]1O (stereo partly drawn) [Compound 33a, cyclo-L-Lys(N-acetyl-Glycosamine-N-acetyl-muramil)-L-Glu-(L-Trp-OH)]
- adjuvant activity (FIG. 4), doses at which active [2]: active at 100 μg/kg
- Anti-protein antibody titer (pooled sera) ([2]; 1 μg per animal): 4.8
- Stimulation index ([2]; 1 μg per animal): 2.9
- Anti-protein antibody titer (pooled sera) ([2]; 10 μg per animal): 5.1
- Stimulation index ([2]; 10 μg per animal): 3.5
- Anti-protein antibody titer (pooled sera) [2, 4]: 5.5
- Stimulation index [2, 5]: 6.8
- Anti-protein antibody titer (for individual sera) [2, 6]: 5.1 (2×) and 4.2 and 5.4 (3×) and 4.1
- Anti-protein antibody titer (for individual sera) [2, 7]: 4.4 and 5.7 (4×) and 4.7 and 5.4
- Anti-protein antibody titer (for individual sera) [2, 8]: 4.8 (2×) and 5.4 and 5.1 (2×) and 6.4 and 5.7
